Activity calls are given as the source filed them. The rule behind the calls is not given here.
Legend:
[1] = tested on: Plasmodium falciparum; experiment: Antiplasmodial activity against asexual erythrocyte stage of chloroquine-sensitive Plasmodium falciparum NF54 infected in human red blood cells after 48 hrs by lactate dehydrogenase assay; type: functional, organism-based; settings: for IC50: NF54, 48 h
[2] = Inhibition of beta hematin formation after 5 to 6 hrs by NP40 detergent-based assay
[3] = Selectivity index, ratio of IC50 for CHO cells to IC50 for asexual erythrocyte stage of chloroquine-resistant Plasmodium falciparum Dd2 infected in human red blood cells; type: toxicity, cell-based; settings: Chinese hamster, read-out: Ratio IC50
[4] = tested on: CHO; experiment: Cytotoxicity against CHO cells by MTT assay; type: cell-based; settings: Cricetulus griseus
[5] = Selectivity index, ratio of IC50 for CHO cells to IC50 for asexual erythrocyte stage of chloroquine-sensitive Plasmodium falciparum NF54 infected in human red blood cells; type: toxicity, cell-based; settings: Chinese hamster, read-out: Ratio IC50
[6] = Resistance index, ratio of IC50 for asexual erythrocyte stage of chloroquine-resistant Plasmodium falciparum Dd2 infected in human red blood cells to IC50 for asexual erythrocyte stage of chloroquine-sensitive Plasmodium falciparum NF54 infected in human red blood cells; type: functional
[7] = tested on: Plasmodium falciparum; experiment: Antiplasmodial activity against asexual erythrocyte stage of chloroquine-resistant Plasmodium falciparum Dd2 infected in human red blood cells after 48 hrs by lactate dehydrogenase assay; type: functional, organism-based; settings: Dd2, 48 h
[8] = tested on: Plasmodium falciparum; experiment: Antiplasmodial activity against Plasmodium falciparum NF54 assessed as increase in undigested hemoglobin levels after 32 hrs by spectrophotometric analysis; type: functional, organism-based
[9] = tested on: Plasmodium falciparum; experiment: Antiplasmodial activity against Plasmodium falciparum NF54 assessed as decrease in hemozoin levels after 32 hrs by spectrophotometric analysis; type: functional, organism-based

Compound	IC50 ([1]; read-out: IC50) [µM]	IC50 ([1]; read-out: pIC50 (converted)) [µM]	1/IC50 [2] [µM⁻¹]	IC50 [2] [µM]	further results
O=C(Nc1ccc(-c2nc3ccccc3[nH]2)cc1)c1cccs1	7.2	7.24	0.0236	42.4	–
CC(=O)Nc1ccc(-c2nc3ccccc3[nH]2)cc1	–	–	–	–	Activity [1]: inactive; inhibition [2]: inactive
CNC(=O)c1cncc(Br)c1	–	–	–	–	Activity [1]: inactive; inhibition [2]: inactive
O=C(Nc1ccc(-c2nc3ccccc3[nH]2)cc1)c1ccc(Cl)cc1	64	64.6	0.0006	1790	–
O=C(Nc1ccc(-c2nc3ccccc3[nH]2)cc1)c1ccc[nH]1	1.2	1.2	0.0215	46.6	–
O=C(Nc1ccc(-c2nc3ccccc3[nH]2)cc1)c1ccccc1	–	257	0.0003	3900	–
O=C(Nc1ccc(-c2nc3ccccc3[nH]2)cc1)c1cccc(Cl)c1	1.21	1.2	0.0398	25.1	–
O=C(O)c1cncc(Br)c1	–	–	–	–	Activity [1]: inactive; inhibition [2]: inactive
O=C(Nc1ccc(-c2nc3ccccc3[nH]2)cc1)c1cncc(C(F)(F)F)c1	0.8	0.794	0.0602	16.6	selectivity ratio [3]: 32; IC50 [4]: 35 µM; selectivity ratio [5]: 44; Ratio IC50 [6]: 1.4; IC50 [7]: 1.1 µM
O=C(Nc1ccc(-c2nc3ccccc3[nH]2)cc1)c1cc(Cl)nc(Cl)c1	0.53	0.525	0.0595	16.8	selectivity ratio [3]: 541; IC50 [4]: 184 µM; selectivity ratio [5]: 347; Ratio IC50 [6]: 0.64; IC50 [7]: 0.34 µM
CC(=O)Nc1ccccc1	–	–	–	–	Activity [1]: inactive; inhibition [2]: inactive
Nc1ccc(-c2nc3ccccc3[nH]2)cc1	–	–	–	–	Activity [1]: inactive; inhibition [2]: inactive
c1ccc2[nH]cnc2c1	–	–	–	–	Activity [1]: inactive; inhibition [2]: inactive
O=C(Nc1ccc(-c2nc3ccccc3[nH]2)cc1)c1ccccc1[N+](=O)[O-]	12.3	12.3	0.0346	28.9	–
O=C(Nc1ccc(-c2nc3ccccc3[nH]2)cc1)c1ccccc1Cl	15	15.1	0.0262	38.2	–
COc1ccccc1C(=O)Nc1ccc(-c2nc3ccccc3[nH]2)cc1	5.5	5.5	0.0257	38.9	–
O=C(Nc1ccc(-c2nc3ccccc3[nH]2)cc1)c1ccc(Cl)cc1Cl	7.2	7.24	0.0111	90	–
CC(C)(C)c1ccc(C(=O)Nc2ccc(-c3nc4ccccc4[nH]3)cc2)cc1	2	2	0.0028	358	–
O=C(Nc1ccc(-c2nc3ccccc3[nH]2)cc1)c1cccc(Br)c1	1.3	1.29	0.0408	24.5	–
O=C(Nc1ccccc1)c1cncc(Br)c1	–	–	–	–	Activity [1]: inactive; inhibition [2]: inactive
O=C(Nc1ccc(-c2nc3ccccc3[nH]2)cc1)c1cncc(Br)c1	0.41	0.407	0.0313	32	selectivity ratio [3]: 197; IC50 [4]: 189 µM; selectivity ratio [5]: 461; Ratio IC50 [6]: 2.4; IC50 [7]: 0.96 µM; Activity [8]: Active; Activity [9]: Active
O=C(Nc1ccc(-c2nc3ccccc3[nH]2)cc1)c1cccnc1	11.6	11.5	0.0281	35.6	–
CC[C@H]1CN2CCc3cc(OC)c(OC)cc3[C@@H]2C[C@@H]1C[C@H]1NCCc2cc(OC)c(OC)cc21 [EMETINE]	–	–	–	–	IC50 [4]: 0.12 µM
O=C(Nc1ccc(-c2nc3ccccc3[nH]2)cc1)c1cc([N+](=O)[O-])cc([N+](=O)[O-])c1	0.67	0.676	0.0752	13.3	selectivity ratio [3]: 665; IC50 [4]: 206 µM; selectivity ratio [5]: 308; Ratio IC50 [6]: 0.46; IC50 [7]: 0.31 µM
O=C(Nc1ccc(-c2nc3ccccc3[nH]2)cc1)c1ccco1	5.9	5.89	0.0119	84.1	–
O=C(Nc1ccc(-c2nc3ccccc3[nH]2)cc1)c1cccc(C(F)(F)F)c1	1.34	1.35	0.0356	28.1	–

Source: ChEMBL document CHEMBL4265980, “Hemozoin inhibiting 2-phenylbenzimidazoles active against malaria parasites” (Eur J Med Chem, 2018)
